Patent US20250101026A1, “Functionalized Allopurinol Derivatives for Treatment of Alzheimer’s Disease” (BOARD OF REGENTS OF THE UNIVERSITY OF NEBRASKA, priority 2022, published 2025)
“Also recorded” adds a separate entry of the source. Read-outs that look alike come from different tables or passages of the source.

Columns and labels:
[1] = test system: SH-SY5Y cells; experiment: Cell viability of SH-SY5Y cells with compound alone; format: cell-based, human; details: up to 100 μM
Protocol: (§1) Cell Culture. The cell line SH-SY5Y was cultured in DMEM/F12 media supplemented with 10% fetal bovine serum, 1% penicillin-streptomycin and maintained as monolayer cultures in a humidified atmosphere containing 5% CO2 at 37° C.^42 All cell lines were authenticated via short tandem repeat analysis and tested for mycoplasma using the a commercial mycoplasma detection kit as per the manufacturer's instructions, showing no contamination. Where indicated, cells were also cultured in DMEM/low glucose media. All compounds were diluted to 20 mM solution in DMSO and were serially diluted in cell culture media for cell treatments to a final concentration range of 0.01 to 100 μM, maintaining the final DMSO concentration at less than 1%. Positive control compound HupA was serially diluted in a similar fashion as the synthesized compounds.
Cell Viability Assays. The SH-SY5Y cells were plated at a density of 50,000 cells/well in 96-well plates and allowed to adapt overnight in a humidified atmosphere containing 5% CO2 at 37° C. The cells were pretreated (24 hours) with the test compound and exchanged to a serum-free DMEM/low glucose media, prior to incubation with 25 μM of Aβ. Cell viability was measured after 48 hours using commercial MTS assay or lactate dehydrogenase (LDH) cytotoxicity assay. […]

[2] = test system: SH-SY5Y cells; experiment: Aβ-induced toxicity in SH-SY5Y cells, MTS assay; format: cell-based, human; details: 1 μM
Protocol: as §1
(§2) Amyloid Preparation. The peptide Aβ1-42, referred to as “Aβ”, was obtained from a commercial source. The oligomers of Aβ were prepared using an established method,^43 Aβ peptide was resuspended in 0.5 mM NaOH at a concentration of […] and stored at −80° C. For use in cell cultures, the stock solution was incubated at 37° C. for 5-7 days. Before use, the peptide was diluted to 25 μM in DMEM/low glucose media.
Cell Viability Assays. The SH-SY5Y cells were plated at a density of 50,000 cells/well in 96-well plates and allowed to adapt overnight in a humidified atmosphere containing 5% CO2 at 37° C. The cells were pretreated (24 hours) with the test compound and exchanged to a serum-free DMEM/low glucose media, prior to incubation with 25 μM of Aβ. Cell viability was measured after 48 hours using commercial MTS assay or lactate dehydrogenase (LDH) cytotoxicity assay.
Employing human neuroblastoma SH-SY5Y ‘neuron-like’ cells, known to express ABAD,^20 experimental conditions are described herein that result in reproducible loss of 65% cell viability upon treatment with 25 μM Aβ after 48-hour incubation (FIG. 4A). Compound 1 (AG18051) and its analog 14b were screened for toxic effects in the SH-SY5Y cell lines.
HupA at 10 μM concentration provided 74% protection from Aβ-induced toxicity. […] Again, synthesized compound 14b at 1 μM, afforded greater protection than HupA at 10 μM concentration.

[3] = target: T1, Aβ-ABAD PPI (Homo sapiens, UniProt Q99714); experiment: Estradiol ELISA assay: rescue of Aβ-induced reduction of estradiol levels in SH-SY5Y cells; format: cell-based; details: compounds 24 hours then Aβ 72 hours
T1 construct: wildtype human SH-SY5Y cell lines, which are known to express ABAD; endogenous in cells; host or cells: SH-SY5Y
T1 sequence (Q99714 2-261 limits assumed): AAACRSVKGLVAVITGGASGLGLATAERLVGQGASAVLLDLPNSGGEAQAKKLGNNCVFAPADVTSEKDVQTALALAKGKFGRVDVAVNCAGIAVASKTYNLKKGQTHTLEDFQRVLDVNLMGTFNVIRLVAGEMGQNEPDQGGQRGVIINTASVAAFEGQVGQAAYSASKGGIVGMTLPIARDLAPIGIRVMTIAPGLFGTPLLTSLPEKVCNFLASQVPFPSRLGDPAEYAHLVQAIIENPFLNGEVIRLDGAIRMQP
Protocol: as §1, §2
Estradiol ELISA assay. SH-SY5Y cells were treated with compounds (24 hours), followed by Aβ (72 hours) in a similar fashion to that employed in the cell viability assays, the cell culture medium was collected, and cells were lysed using RIPA buffer and protease inhibitor cocktail, then proteins were quantified via BCA assay. An estradiol assay was performed. In brief, the plate was loaded with samples, along with the estradiol tracer and the specific antiserum to estradiol and incubated for one hour at room temperature. After five washing steps, Ellman's Reagent was added, and the plate developed for 60 minutes with gentle shaking at room temperature. The calculated estradiol concentration was normalized to the total protein content of the samples.
Statistical Analyses. The IC50 values of each compound were acquired from a single experiment with each inhibitor concentration run in triplicate and the statistical significance was calculated using the Student t test, or a one-way or two-way ANOVA. A P value of <0.05 was considered statistically significant. IC50 values were calculated.
To determine the effect of Aβ on estradiol production, and ABAD's role in this process, wildtype human SH-SY5Y cell lines, which are known to express ABAD, were incubated for 72 hours with Aβ.^20 Estradiol levels in the cell lysate were measured with a commercial ELISA-based estradiol assay. […] To determine if AG18051 treatment affects Aβ-induced reduction of estradiol levels, 0.1 or 1 μM AG18051 was preincubated in SH-SY5Y cells for 24 hours prior to Aβ exposure. […] AG18051 at 1 μM protected SH-SY5Y cells from Aβ-induced reduction of estradiol production to a greater significance than HupA. This confirms literature reports that AG18051 is neuroprotective and that it exerts this effect by ameliorating Aβ-induced reduction of estradiol production by ABAD.^20, 23
This assay methodology allows direct screening of compound activity in the presence of Aβ and provides direct evidence of the ability of compounds to rescue Aβ-induced reduction of estradiol production by ABAD. To measure the effect of AG18051 alone in SH-SY5Y cell lines, a 0.01-100 μM dose-response range was tested, and their effect on estradiol levels (FIG. 2B). […] To evaluate the effect of the increase of AG18051 dose in maintaining estradiol levels reduced by Aβ, AG18051 was tested in increasing concentrations in the presence of Aβ (FIG. 2B).

O=C(C(c1ccccc1)n1cnc2[nH]ncc2c1=S)N1CCC(O)CC1 (centres unmarked) [Compound 14b, 1-(4-hydroxypiperidin-1-yl)-2-phenyl-2-(4-thioxo-1,4-dihydro-5H-pyrazolo[3,4-d]pyrimidin-5-yl)ethan-1-one]
toxicity to reduce cell viability [1]: no toxicity; also recorded: non-toxic
rescue of Aβ-induced reduction of cell viability (MTS assay) [2]: significantly rescued
protection of cell viability (MTS assay) ([2]; pretreated 24 hrs, then 25 μM Aβ 48 hrs): 82%
IC50 ([3]; amelioration of Aβ-induced reduction of estradiol levels, read-out: IC50 (estradiol assay)): 740 nM
IC50 ([3]; read-out: IC50 (estradiol assay), unit inferred): 738 ± 105 nM
